Data taken from patent US20220211692A1, “Modulators of the Cystic Fibrosis Transmembrane Conductance Regulator Protein and Methods of Use” (AbbVie Global Enterprises Ltd., priority 2021, published 2022).
Where two headings read alike, the source gives them in different places.

Experiments:
F508del/F508del CFTR = biological target: T1, F508del/F508del CFTR (Homo sapiens, UniProt P13569, DEL508-508); test: Trans-Epithelial Current Clamp (TECC) assay using primary human bronchial epithelial cells; type: cell-based; conditions: for Emax (% Dual): maximum percent activity relative to positive control (co-corrector 0.15 μM + potentiator 0.45 μM = 100%); for EC50: primary hBE cells F508del/F508del, test corrector with co-corrector and potentiator, 18-24 hours, equivalent CFTR current
T1 construct: cells isolated from CF patients with the homozygous mutation; endogenous in cells; host or cells: primary human bronchial epithelial (hBE) cells from CF patients homozygous for F508del
T1 sequence (P13569 with tags, fused parts or gaps DEL508-508): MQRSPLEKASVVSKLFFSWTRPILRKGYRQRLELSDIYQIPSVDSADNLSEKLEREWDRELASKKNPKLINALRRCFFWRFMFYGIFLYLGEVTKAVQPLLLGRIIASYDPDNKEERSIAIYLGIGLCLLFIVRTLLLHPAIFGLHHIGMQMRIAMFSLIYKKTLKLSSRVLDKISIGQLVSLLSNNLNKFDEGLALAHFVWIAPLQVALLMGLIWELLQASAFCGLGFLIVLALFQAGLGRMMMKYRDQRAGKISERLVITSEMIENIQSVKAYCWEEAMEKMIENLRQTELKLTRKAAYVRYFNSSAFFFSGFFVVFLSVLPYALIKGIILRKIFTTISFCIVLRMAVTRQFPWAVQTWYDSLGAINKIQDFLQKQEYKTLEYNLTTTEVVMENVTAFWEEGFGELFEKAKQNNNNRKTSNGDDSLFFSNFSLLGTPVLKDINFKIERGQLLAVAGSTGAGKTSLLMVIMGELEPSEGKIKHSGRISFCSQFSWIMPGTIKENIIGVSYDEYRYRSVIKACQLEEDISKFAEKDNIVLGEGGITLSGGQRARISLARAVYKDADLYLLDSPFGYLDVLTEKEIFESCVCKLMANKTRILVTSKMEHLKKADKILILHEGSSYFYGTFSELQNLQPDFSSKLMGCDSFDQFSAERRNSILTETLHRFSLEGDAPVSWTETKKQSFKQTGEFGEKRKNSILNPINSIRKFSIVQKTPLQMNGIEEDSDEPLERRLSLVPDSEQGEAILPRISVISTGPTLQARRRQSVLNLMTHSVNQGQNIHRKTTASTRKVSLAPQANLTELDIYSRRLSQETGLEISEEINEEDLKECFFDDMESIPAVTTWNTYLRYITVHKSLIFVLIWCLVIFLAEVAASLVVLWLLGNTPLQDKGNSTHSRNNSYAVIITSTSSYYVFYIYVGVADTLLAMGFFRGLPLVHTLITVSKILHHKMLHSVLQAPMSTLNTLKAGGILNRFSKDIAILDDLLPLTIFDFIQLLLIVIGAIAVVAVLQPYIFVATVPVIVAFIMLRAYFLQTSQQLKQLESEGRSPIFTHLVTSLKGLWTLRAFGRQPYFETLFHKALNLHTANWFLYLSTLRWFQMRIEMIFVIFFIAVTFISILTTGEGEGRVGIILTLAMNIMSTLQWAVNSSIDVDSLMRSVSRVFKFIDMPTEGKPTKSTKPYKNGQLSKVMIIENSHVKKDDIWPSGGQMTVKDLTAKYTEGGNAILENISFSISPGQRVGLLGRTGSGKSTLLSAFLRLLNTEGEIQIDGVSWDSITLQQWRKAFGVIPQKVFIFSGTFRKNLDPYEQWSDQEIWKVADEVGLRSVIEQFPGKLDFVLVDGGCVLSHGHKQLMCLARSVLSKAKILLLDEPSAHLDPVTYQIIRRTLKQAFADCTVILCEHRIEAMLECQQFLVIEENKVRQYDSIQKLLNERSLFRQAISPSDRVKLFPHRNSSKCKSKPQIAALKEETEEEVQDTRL
Method in brief: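 F508del/F508del primary hBE cells grown 35 days at air-liquid interface were treated basolaterally with C2 correctors plus fixed co-corrector and potentiator for 18-24 h at 37° C. TECC-24 current clamp at 36.5° C in HEPES-buffered F-12 Coon's, pH 7.4; equivalent current IEQ=VT/RT, plus AUC between forskolin peak and bumetanide.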

F508delCFTR = biological target: T2, F508delCFTR (Homo sapiens, UniProt P13569, DEL508-508); test: Cell Surface Expression-Horse Radish Peroxidase (CSE-HRP) assay in CFBE41o-F508delCFTR-HRP cells; type: cell-based; conditions: for EC50: CFBE41o-F508delCFTR-HRP cells, 18-24 hours at 33° C.; for Emax / Maximum % activity (with co-corrector): normalized to on-plate positive control; for Emax: read-out: Maximum % activity (without co-corrector)
T2 construct: expressed in transfected cells; host or cells: CFBE41o- human lung derived epithelial cell line, doxycycline-induced expression
T2 sequence (P13569 with tags, fused parts or gaps DEL508-508): as above
Method in brief: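 Doxycycline (0.5 μg/mL) induced HRP-tagged F508delCFTR in CFBE41o- cells for 68-72 h at 37 °C; compounds ± co-corrector (2 μM) then ran 18-24 h at 33 °C, 8-point 3-fold series from 20 or 30 μM. After DPBS washes, surface HRP was read by luminol luminescence. Activity was normalised to the on-plate positive control versus DMSO, and EC50 was fitted by variable-slope sigmoid from triplicate plates.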

[1] = with co-corrector 2 μM, read-out: EC50 (with co-corrector)
[2] = without co-corrector, read-out: EC50 (without co-corrector)

| Compound | Emax (% Dual) (F508del/F508del CFTR) | EC50 (F508del/F508del CFTR) [nM] | EC50 (F508delCFTR; [1]) [nM] | EC50 (F508delCFTR; [2]) [nM] | Emax (F508delCFTR; without co-corrector) [%] | Maximum % activity (with co-corrector) (F508delCFTR; with co-corrector 2 μM) [%] |
| --- | --- | --- | --- | --- | --- | --- |
| COc1ccc(C)cc1[C@@]1(C(=O)NS(=O)(=O)c2cccc3nc(C)ccc23)C[C@H](c2ccccc2)CO1 [Example 33, (2R,4R)-2-(2-methoxy-5-methylphenyl)-N-(2-methylquinoline-5-sulfonyl)-4-phenyloxolane-2-carboxamide] | 264 | 20.1 | 1630 | 2300 | 756 | – |
| COc1ccc(C)cc1[C@]1(C(=O)NS(=O)(=O)c2cccc3nc(C)ccc23)C[C@@H](c2ccccc2)CO1 [Example 36, (2S,4S)-2-(2-methoxy-5-methylphenyl)-N-(2-methylquinoline-5-sulfonyl)-4-phenyloxolane-2-carboxamide] | 255 | 31 | 810 | 1590 | 443 | – |
| COc1ccc(C)cc1[C@]1(C(=O)NS(=O)(=O)c2cccc3nc(C)ccc23)C[C@H](c2ccccc2)CO1 [Example 37, (2S,4R)-2-(2-methoxy-5-methylphenyl)-N-(2-methylquinoline-5-sulfonyl)-4-phenyloxolane-2-carboxamide] | 305 | 38.3 | 3210 | 3630 | 217 | 573 |
| COc1ccccc1[C@H]1CO[C@@](C(=O)NS(=O)(=O)c2cccc3nc(C)ccc23)(c2cc(C)ccc2OC)C1 [Example 38, (2R,4S)-2-(2-methoxy-5-methylphenyl)-4-(2-methoxyphenyl)-N-(2-methylquinoline-5-sulfonyl)oxolane-2-carboxamide] | 244 | 14.1 | 330 | 980 | 679 | – |
| COc1ccccc1[C@@H]1CO[C@@](C(=O)NS(=O)(=O)c2cccc3nc(C)ccc23)(c2cc(C)ccc2OC)C1 [Example 39, (2R,4R)-2-(2-methoxy-5-methylphenyl)-4-(2-methoxyphenyl)-N-(2-methylquinoline-5-sulfonyl)oxolane-2-carboxamide] | 239 | 26.1 | 200 | 470 | 470 | – |
| COc1ccccc1[C@@H]1CO[C@@](C(=O)NS(=O)(=O)c2cccc3nc(N)ccc23)(c2cc(C)ccc2OC)C1 [Example 40, (2R,4R)—N-(2-aminoquinoline-5-sulfonyl)-2-(2-methoxy-5-methylphenyl)-4-(2-methoxyphenyl)oxolane-2-carboxamide] | 208 | 2.6 | 160 | 440 | 705 | – |
| COc1ccc(C)cc1[C@@]1(C(=O)NS(=O)(=O)c2cccc3nc(N)ccc23)C[C@H](c2ccccc2)CO1 [Example 41, (2R,4R)—N-(2-aminoquinoline-5-sulfonyl)-2-(2-methoxy-5-methylphenyl)-4-phenyloxolane-2-carboxamide] | 274 | 19.4 | 270 | 760 | 872 | – |
| COc1cccc([C@@H]2CO[C@@](C(=O)NS(=O)(=O)c3cccc4nc(C)ccc34)(c3cc(C)ccc3OC)C2)c1 [Example 42, (2R,4R)-2-(2-methoxy-5-methylphenyl)-4-(3-methoxyphenyl)-N-(2-methylquinoline-5-sulfonyl)oxolane-2-carboxamide] | 237 | 11.1 | 570 | 1120 | 751 | – |
| COc1ccc([C@@H]2CO[C@@](C(=O)NS(=O)(=O)c3cccc4nc(C)ccc34)(c3cc(C)ccc3OC)C2)cc1 [Example 44, (2R,4R)-2-(2-methoxy-5-methylphenyl)-4-(4-methoxyphenyl)-N-(2-methylquinoline-5-sulfonyl)oxolane-2-carboxamide] | 335 | 11.6 | 300 | 600 | 512 | – |
| COc1ccc([C@H]2CO[C@@](C(=O)NS(=O)(=O)c3cccc4nc(C)ccc34)(c3cc(C)ccc3OC)C2)cc1 [Example 45, (2R,4S)-2-(2-methoxy-5-methylphenyl)-4-(4-methoxyphenyl)-N-(2-methylquinoline-5-sulfonyl)oxolane-2-carboxamide] | 229 | 36.3 | 440 | 610 | 386 | 911 |
